# Paper PMC3240959 (2011)
# Target: T1, PfTrx-2 (Plasmodium falciparum thioredoxin-2, MAL13P1.225) (Plasmodium falciparum, UniProt Q8IDP4)
# T1 sequence (Q8IDP4 28-157): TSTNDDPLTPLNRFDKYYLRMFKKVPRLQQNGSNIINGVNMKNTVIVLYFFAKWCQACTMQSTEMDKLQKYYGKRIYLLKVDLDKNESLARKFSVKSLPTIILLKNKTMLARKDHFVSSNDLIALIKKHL
# Test: insulin reduction
# Assay type: biochemical
smiles,measurement,value
"O=C(O)CC([S][Au])C(=O)O (racemic) [ATM, Aurothiomalate]",IC50,~20 µM
